Measurements from the CheMixHub viscosity set.

Assay: xn = mol fraction of the nth substance listed

C#CCO + O
viscosity [mPa·s]
Settings	303.15 K	308.15 K	313.15 K	318.15 K	323.15 K
101 kPa, x1 = 0.1	1.094	0.9708	0.8728	0.7923	0.7208
101 kPa, x1 = 0.166	1.191	1.06	0.9534	0.8633	0.7845
101 kPa, x1 = 0.3	1.275	1.135	1.023	0.9273	0.845
101 kPa, x1 = 0.4	1.291	1.157	1.048	0.9513	0.8707
101 kPa, x1 = 0.499	1.296	1.165	1.054	0.9624	0.8802
101 kPa, x1 = 0.599	1.309	1.179	1.069	0.9758	0.8933
101 kPa, x1 = 0.7	1.313	1.188	1.079	0.9844	0.902
101 kPa, x1 = 0.801	1.327	1.202	1.092	0.9977	0.9169
101 kPa, x1 = 0.899	1.33	1.204	1.095	1	0.9179
101.32 kPa, x1 = 0.1138	–	0.9894	0.8862	0.7991	0.7267
101.32 kPa, x1 = 0.2351	–	1.105	0.9927	0.8936	0.8222
101.32 kPa, x1 = 0.3145	–	1.149	1.034	0.9365	0.8508
101.32 kPa, x1 = 0.4174	–	1.171	1.059	0.9551	0.8741
101.32 kPa, x1 = 0.5002	–	1.186	1.069	0.9676	0.8856
101.32 kPa, x1 = 0.61	–	1.194	1.077	0.9877	0.8958
101.32 kPa, x1 = 0.7185	–	1.2	1.085	0.9924	0.9072
101.32 kPa, x1 = 0.8223	–	1.209	1.095	1	0.9191
101.32 kPa, x1 = 0.9	–	1.216	1.107	1.007	0.9223

C1COCO1 + O
viscosity [mPa·s], 101 kPa
Settings	298.15 K	303.15 K	308.15 K	313.15 K	318.15 K	323.15 K
x1 = 0.01	0.754	–	0.6051	–	0.5251	–
x1 = 0.026	0.813	–	0.6561	–	0.5671	–
x1 = 0.03	–	0.8133	–	0.6555	–	0.5673
x1 = 0.041	0.8741	–	0.7144	–	0.6071	–
x1 = 0.06	–	0.8766	–	0.7152	–	0.6053
x1 = 0.09	–	0.9304	–	0.7618	–	0.6297

CCC(O)CC + O
298.15 K, 101 kPa
Settings	viscosity [mPa·s]
x2 = 0.0181	4.598
x2 = 0.0463	4.339
x2 = 0.0845	4.074
x2 = 0.1302	3.873
x2 = 0.1754	3.748
x2 = 0.1948	3.712
x2 = 0.2262	3.67
x2 = 0.2533	3.65
x2 = 0.2782	3.641
x2 = 0.3215	3.648

CCCCCCn1cc[n+](C)c1.[Br-] + O
303.15 K, 101 kPa
Settings	viscosity [mPa·s]
x2 = 0.2196	695.5
x2 = 0.2978	395.5

CCN(CCO)CCO + O
viscosity [mPa·s], 101 kPa
Settings	303.15 K	308.15 K	313.15 K	318.15 K	323.15 K
x1 = 0.0478	2.433	2.084	1.809	1.585	1.4
x1 = 0.1002	5.975	4.885	4.051	3.403	2.897
x1 = 0.1411	10.13	8.044	6.499	5.322	4.422
x1 = 0.1933	16.59	12.84	10.12	8.088	6.604
x1 = 0.2959	31.21	23.36	17.84	13.84	10.95
x1 = 0.3944	43.07	31.83	24.05	18.38	14.39
x1 = 0.495	51.1	37.78	28.28	21.56	16.84
x1 = 0.5912	54.81	40.53	30.44	23.28	18.22
x1 = 0.7064	55.22	40.91	31.03	23.93	18.76
x1 = 0.8113	53.42	39.97	30.47	23.66	18.65
x1 = 0.8934	51.39	38.76	29.74	23.19	18.44

CN1CCCCCC1=O + O
298.16 K, 101 kPa
Settings	viscosity [mPa·s]
x2 = 0.0975	5.35
x2 = 0.2528	6.17
x2 = 0.4046	7.19
x2 = 0.4996	7.85
x2 = 0.577	8.2
x2 = 0.63	8.28
x2 = 0.7444	7.43
x2 = 0.8512	5.1

C[N+](C)(C)CCO.O=C([O-])CC(=O)O + O
viscosity [mPa·s], 100 kPa
Settings	x2 = 0.01	x2 = 0.17	x2 = 0.22	x2 = 0.38	x2 = 0.5	x2 = 0.58	x2 = 0.632	x2 = 0.673	x2 = 0.864
293.15 K	12050	4381	3565	1377	622.1	312.8	206.3	145.4	14.3
298.15 K	7430	2850	2316	941.2	438.7	227	152.2	108.9	11.9
303.15 K	4675	1908	1563	651	317.1	168.5	114.7	83.2	9.9
308.15 K	3076	1312	1084	467.9	234.5	127.7	88.2	64.8	8.4
313.15 K	2089	924.5	770	343.9	177.1	98.6	69	51.3	7
318.15 K	1453	666.7	559.7	257.6	136.3	77.5	54.9	41.2	6.2
323.15 K	1034	491	415.2	199.7	106.8	61.8	44.4	33.6	5.4

C[n+]1cc([O-])on1 + O
313.15 K, 101 kPa
Settings	viscosity [mPa·s]
x2 = 0.1304	4.405
x2 = 0.2625	3.634
x2 = 0.4242	2.894
x2 = 0.6104	2.178
x2 = 0.7384	1.687
x2 = 0.882	1.121
x2 = 0.9089	1.015
x2 = 0.9709	0.775
x2 = 0.9746	0.768

Cn1cc[n+](CC(O)CNCCN(CCNCC(O)C[n+]2ccn(C)c2)CC(O)C[n+]2ccn(C)c2)c1.[Cl-].[Cl-].[Cl-] (stereo not drawn) + O
101.33 kPa, x2 = 0.49
Settings	viscosity [mPa·s]
298.15 K	1956
308.15 K	779.1
318.15 K	370.5

O=C(O)[C@@H](O)[C@@H](O)C(=O)O + O
298 K, 101.3 kPa
Settings	viscosity [mPa·s]
x1 = 0.000823	0.9012
x1 = 0.00165	0.9144
x1 = 0.003567	0.9399
x1 = 0.005454	0.9656
x1 = 0.006888	0.99
x1 = 0.00872	1.018
x1 = 0.01004	1.034
x1 = 0.01181	1.066

O=C1CCC[NH+]1C1CCCCC1.O=S(=O)([O-])c1ccccc1 + O
Settings	viscosity [mPa·s]
303.15 K, 101 kPa, x1 = 0.01351	1.405

O=N[O-].[Na+] + O
viscosity [mPa·s]
Settings	x1 = 0.0182	x1 = 0.0368	x1 = 0.0558	x1 = 0.0753	x1 = 0.0989	x2 = 0.85	x2 = 0.87	x2 = 0.89	x2 = 0.92	x2 = 0.94
293.15 K, 101.33 kPa	–	–	–	–	–	2.834	2.248	1.903	1.494	1.374
298.15 K, 101 kPa	0.97	1.09	1.24	1.43	1.73	–	–	–	–	–
313.15 K, 101 kPa	0.72	0.82	0.93	1.05	1.26	–	–	–	–	–

O=S(=O)([N-]S(=O)(=O)C(F)(F)C(F)(F)F)C(F)(F)F.[Li+] + O
101 kPa, x1 = 0.3
Settings	viscosity [mPa·s]
293.15 K	145
298.15 K	114
303.15 K	89.8
313.15 K	58.8
323.15 K	40.2

[Al+3].[Cl-].[Cl-].[Cl-] + O
Settings	viscosity [mPa·s]
293.15 K, 101 kPa, x1 = 0.039	5.58

FCC(F)(F)F + OCCO
viscosity [mPa·s], 101.32 kPa
Settings	x2 = 0.948	x2 = 0.949	x2 = 0.964	x2 = 0.965	x2 = 0.974	x2 = 0.975
293.15 K	16.9	–	17.1	–	17.9	–
313.15 K	–	7.76	–	7.91	–	7.86

FCC(F)(F)F + OCCOCCO
viscosity [mPa·s], 101.32 kPa
Settings	x2 = 0.788	x2 = 0.814	x2 = 0.816	x2 = 0.844	x2 = 0.845	x2 = 0.892	x2 = 0.893
293.15 K	12.4	14.3	–	16.7	–	21	–
313.15 K	–	–	6.78	–	7.29	–	8.26

FCC(F)(F)F + OCCOCCOCCO
viscosity [mPa·s], 101.32 kPa
Settings	x2 = 0.732	x2 = 0.733	x2 = 0.79	x2 = 0.791	x2 = 0.901	x2 = 0.903
293.15 K	11.3	–	15.8	–	28.9	–
313.15 K	–	5.52	–	7.14	–	11.2

CC(=O)c1ccccc1 + OCc1ccccc1
303.15 K, 101 kPa
Settings	viscosity [mPa·s]
x1 = 0.0742	4.331
x1 = 0.2566	3.618
x1 = 0.3107	3.42
x1 = 0.4505	2.937
x1 = 0.528	2.685
x1 = 0.5727	2.544
x1 = 0.7494	2.036
x1 = 0.8383	1.82
x1 = 0.9234	1.638

C[N+](C)(C)C.[Cl-] + Oc1ccccc1
viscosity [mPa·s], 101 kPa
Settings	303.15 K	313.15 K	323.15 K
x1 = 0.2	23.35	16.88	11.9
x1 = 0.25	36.91	23.75	16.31
